Assay results from publication PMC8413292, “Small-molecule polymerase inhibitor protects non-human primates from measles and reduces shedding” (Nature Communications, 2021).
Several values for one entry are separate records, joined by “and”; a condition that tells them apart may be missing. Equal values may be shown once.

Assays:
MeV N gene RNA = assay: Quantitative RT-PCR of MeV N RNA in PBMCs; type: in vivo
Experimental: Organs (21 days post-infection) and PBMCs (twice a week) were frozen in RNAlater (Qiagen) at −80 °C until further processing. For the deceased animal, organs were frozen in RNAlater at the day of death. Lymph nodes were thawed on ice, transferred to TRIzol (ambion life technologies) and homogenized using a tissue homogenizer. Total RNA of lymph nodes and PBMCs was extracted following the TRIzol manufacturer’s protocol. RNA (1000 ng for lymph nodes; 110 ng for PBMCs) was then subjected to reverse transcription using random hexamer primers and Superscript III reverse transcriptase in accordance with the manufacturer’s protocols. Subsequent quantitative PCR (qPCR) was carried out using primer pairs specific for a fragment in the MeV N gene[23] or GAPDH gene(Supplementary Table 2) and the PowerUp SYBR Green Master Mix (Thermo Fisher Scientific) in an Applied Biosystems 7500 Real-Time PCR system. Samples were normalized for GAPDH. The comparative (ΔΔCt) Ct method was applied to determine relative amounts of N-encoding RNA present in samples from treated animals compared to those obtained from untreated control animals (lymph nodes) or compared to those obtained from untreated control animals on day 7 post-infection (peak PBMC virus titer).

[1] = Necropsy and histology (H&E) for pharmacotoxicity; type: in vivo
Description: After euthanasia, each animal was examined for gross pathological changes, and samples were collected for histopathological examination. After fixation, all tissue samples were embedded in paraffin. Histology slices were mounted and stained using standard H&E staining techniques.

[2] = Body weight of squirrel monkeys during the efficacy study; type: in vivo, squirrel monkeys (Saimiri sciureus); conditions: all animals throughout the study
Experimental: All animal experiments were carried out in compliance with the regulations of German animal protection laws and authorized by the Regierungspräsidium Darmstadt, Germany (Dezernat V54 – Veterinärwesen und Verbraucherschutz, Hilpertstrasse 31, 64295 Darmstadt). Adult male and female squirrel monkeys (Saimiri sciureus) were obtained from BioPRIM, 31450 Baziege, or CNRS 0846 Primatologie, 13790 Rousset, France. Each experimental group was housed in a separate room, and animals of the same sex were caged together within the respective groups. For the single-dose pharmacokinetic experiment, animals were anesthetized, and the drug was given through a stomach tube at a concentration of 50 mg/kg bodyweight. Blood samples were collected after 15, 30, and 60 min, and 2, 3, 6, and 24 h. For efficacy assessment, groups of 6 animals were left untreated or treated with 50 mg/kg of ERDRP-0519 twice daily for two weeks, starting either 12 h before or 3 or 7 days after intranasal infection with 10^6 TCID50 of MV/FrankfurtMain.DEU/17.11. Clinical signs, rectal temperature, and weight were recorded daily, and throat swabs and blood samples were collected before infection and twice weekly thereafter. On day 21 post-infection, the animals were euthanized, necropsied, and samples were collected for histological analysis.

[3] = tested on: canine distemper virus (CDV); conditions: lethal CDV-ferret model; cited from earlier work

Cn1nc(C(F)(F)F)cc1C(=O)Nc1ccc(S(=O)(=O)N2CCCC[C@H]2CCN2CCOCC2)cc1 [ERDRP-0519]
Supp. Figure 3a, relative MeV N RNA in PBMCs, group mean (Mean 2) (MeV N gene RNA; prophylactic, Day 0): -12.26 | Supp. Figure 3a, relative MeV N RNA in PBMCs, group mean (Mean 2) (MeV N gene RNA; prophylactic, Day 3): -12.06 | Supp. Figure 3a, relative MeV N RNA in PBMCs, group mean (Mean 2) (MeV N gene RNA; prophylactic, Day 7): -11.48 | Supp. Figure 3a, relative MeV N RNA in PBMCs, group mean (Mean 2) (MeV N gene RNA; prophylactic, Day 10): -12.34 | Supp. Figure 3a, relative MeV N RNA in PBMCs, group mean (Mean 2) (MeV N gene RNA; prophylactic, Day 14): -13.16 | Supp. Figure 3a, relative MeV N RNA in PBMCs, group mean (Mean 2) (MeV N gene RNA; prophylactic, Day 17): -11.47 | Supp. Figure 3a, relative MeV N RNA in PBMCs, group mean (Mean 2) (MeV N gene RNA; prophylactic, Day 21): -10.12 | Supplemental Figure 3a source data, relative MeV N RNA in PBMCs, individual animals (MeV N gene RNA; prophylactic, time (d) 0): -12.3202 and -6.433 and -10.4614 and -17.6101 and -12.9356 and -13.7878 | Supplemental Figure 3a source data, relative MeV N RNA in PBMCs, individual animals (MeV N gene RNA; prophylactic, time (d) 3): -12.847 and -12.9062 and -10.7172 and -12.2727 and -12.1274 and -11.494 | Supplemental Figure 3a source data, relative MeV N RNA in PBMCs, individual animals (MeV N gene RNA; prophylactic, time (d) 7): -12.6218 and -9.583 and -12.0312 and -12.5732 and -12.8193 and -9.245 | Supplemental Figure 3a source data, relative MeV N RNA in PBMCs, individual animals (MeV N gene RNA; prophylactic, time (d) 10): -9.991 and -12.9071 and -11.8528 and -13.7115 and -14.2547 and -11.2939 | Supplemental Figure 3a source data, relative MeV N RNA in PBMCs, individual animals (MeV N gene RNA; prophylactic, time (d) 14): -12.3346 and -10.7326 and -10.4158 and -12.9517 and -16.1088 and -16.4382 | Supplemental Figure 3a source data, relative MeV N RNA in PBMCs, individual animals (MeV N gene RNA; prophylactic, time (d) 17): -14.0262 and -7.645 and -8.833 and -10.0876 and -14.1769 and -14.0235 | Supplemental Figure 3a source data, relative MeV N RNA in PBMCs, individual animals (MeV N gene RNA; prophylactic, time (d) 21): -13.9134 and -10.311 and -12.0659 and -11.4656 and -0.8977 and -12.0848 | Supp. Figure 3a, relative MeV N RNA in PBMCs, group mean (Mean 2) (MeV N gene RNA; therapeutic (d3), Day 0): -13.2 | Supp. Figure 3a, relative MeV N RNA in PBMCs, group mean (Mean 2) (MeV N gene RNA; therapeutic (d3), Day 3): -12.07 | Supp. Figure 3a, relative MeV N RNA in PBMCs, group mean (Mean 2) (MeV N gene RNA; therapeutic (d3), Day 7): -9.205 | Supp. Figure 3a, relative MeV N RNA in PBMCs, group mean (Mean 2) (MeV N gene RNA; therapeutic (d3), Day 10): -9.289 | Supp. Figure 3a, relative MeV N RNA in PBMCs, group mean (Mean 2) (MeV N gene RNA; therapeutic (d3), Day 14): -11.53 | Supp. Figure 3a, relative MeV N RNA in PBMCs, group mean (Mean 2) (MeV N gene RNA; therapeutic (d3), Day 17): -11.67 | Supp. Figure 3a, relative MeV N RNA in PBMCs, group mean (Mean 2) (MeV N gene RNA; therapeutic (d3), Day 21): -13.06 | Supplemental Figure 3a source data, relative MeV N RNA in PBMCs, individual animals (MeV N gene RNA; therapeutic (d3), time (d) 0): -12.185 and -15.2199 and -11.755 and -14.0483 and -12.7958 | Supplemental Figure 3a source data, relative MeV N RNA in PBMCs, individual animals (MeV N gene RNA; therapeutic (d3), time (d) 3): -13.2368 and -9.809 and -12.089 and -11.8661 and -12.6935 and -12.7459 | Supplemental Figure 3a source data, relative MeV N RNA in PBMCs, individual animals (MeV N gene RNA; therapeutic (d3), time (d) 7): -6.7874 and -7.787 and -8.103 and -8.648 and -13.5153 and -10.39 | Supplemental Figure 3a source data, relative MeV N RNA in PBMCs, individual animals (MeV N gene RNA; therapeutic (d3), time (d) 10): -4.115 and -10.1748 and -9.33 and -8.711 and -14.231 and -9.172 | Supplemental Figure 3a source data, relative MeV N RNA in PBMCs, individual animals (MeV N gene RNA; therapeutic (d3), time (d) 14): -9.809 and -12.4589 and -12.5095 and -12.5754 and -8.538 and -13.3167 | Supplemental Figure 3a source data, relative MeV N RNA in PBMCs, individual animals (MeV N gene RNA; therapeutic (d3), time (d) 17): -10.29 and -10.5346 and -12.5229 and -11.5387 and -13.4468 | Supplemental Figure 3a source data, relative MeV N RNA in PBMCs, individual animals (MeV N gene RNA; therapeutic (d3), time (d) 21): -15.6913 and -17.4162 and -8.965 and -9.87 and -13.3809 | Supp. Figure 3a, relative MeV N RNA in PBMCs, group mean (Mean 2) (MeV N gene RNA; therapeutic (d7), Day 0): -11.48 | Supp. Figure 3a, relative MeV N RNA in PBMCs, group mean (Mean 2) (MeV N gene RNA; therapeutic (d7), Day 3): -11.42 | Supp. Figure 3a, relative MeV N RNA in PBMCs, group mean (Mean 2) (MeV N gene RNA; therapeutic (d7), Day 7): -3.189 | Supp. Figure 3a, relative MeV N RNA in PBMCs, group mean (Mean 2) (MeV N gene RNA; therapeutic (d7), Day 10): -4.318 | Supp. Figure 3a, relative MeV N RNA in PBMCs, group mean (Mean 2) (MeV N gene RNA; therapeutic (d7), Day 14): -7.135 | Supp. Figure 3a, relative MeV N RNA in PBMCs, group mean (Mean 2) (MeV N gene RNA; therapeutic (d7), Day 17): -8.639 | Supp. Figure 3a, relative MeV N RNA in PBMCs, group mean (Mean 2) (MeV N gene RNA; therapeutic (d7), Day 21): -9.558 | Supplemental Figure 3a source data, relative MeV N RNA in PBMCs, individual animals (MeV N gene RNA; therapeutic (d7), time (d) 0): -14.3685 and -13.0066 and -11.8077 and -7.512 and -11.9115 and -10.2528 | Supplemental Figure 3a source data, relative MeV N RNA in PBMCs, individual animals (MeV N gene RNA; therapeutic (d7), time (d) 3): -13.8644 and -13.9177 and -9.909 and -10.1407 and -11.3735 and -9.308 | Supplemental Figure 3a source data, relative MeV N RNA in PBMCs, individual animals (MeV N gene RNA; therapeutic (d7), time (d) 7): -0.7497 and -4.549 and -6.525 and -1.948 and -0.04871 and -5.313 | Supplemental Figure 3a source data, relative MeV N RNA in PBMCs, individual animals (MeV N gene RNA; therapeutic (d7), time (d) 10): -4.45 | Supp. Figure 3a, relative MeV N RNA in PBMCs, Mean Diff. (MeV N gene RNA; untreated vs. prophylactic, Day 0): -1.268 | Supp. Figure 3a, relative MeV N RNA in PBMCs, Mean Diff. (MeV N gene RNA; untreated vs. prophylactic, Day 3): 0.4295 | Supp. Figure 3a, relative MeV N RNA in PBMCs, Mean Diff. (MeV N gene RNA; untreated vs. prophylactic, Day 7): 11.48 | Supp. Figure 3a, relative MeV N RNA in PBMCs, Mean Diff. (MeV N gene RNA; untreated vs. prophylactic, Day 10): 11.3 | Supp. Figure 3a, relative MeV N RNA in PBMCs, Mean Diff. (MeV N gene RNA; untreated vs. prophylactic, Day 14): 6.945 | Supp. Figure 3a, relative MeV N RNA in PBMCs, Mean Diff. (MeV N gene RNA; untreated vs. prophylactic, Day 17): 2.967 | Supp. Figure 3a, relative MeV N RNA in PBMCs, Mean Diff. (MeV N gene RNA; untreated vs. prophylactic, Day 21): 0.4094 | Supp. Figure 3a, relative MeV N RNA in PBMCs, Mean Diff. (MeV N gene RNA; untreated vs. therapeutic (d3), Day 0): -0.325 | Supp. Figure 3a, relative MeV N RNA in PBMCs, Mean Diff. (MeV N gene RNA; untreated vs. therapeutic (d3), Day 3): 0.4421 | Supp. Figure 3a, relative MeV N RNA in PBMCs, Mean Diff. (MeV N gene RNA; untreated vs. therapeutic (d3), Day 7): 9.205 | Supp. Figure 3a, relative MeV N RNA in PBMCs, Mean Diff. (MeV N gene RNA; untreated vs. therapeutic (d3), Day 10): 8.257 | Supp. Figure 3a, relative MeV N RNA in PBMCs, Mean Diff. (MeV N gene RNA; untreated vs. therapeutic (d3), Day 14): 5.316 | Supp. Figure 3a, relative MeV N RNA in PBMCs, Mean Diff. (MeV N gene RNA; untreated vs. therapeutic (d3), Day 17): 3.169 | Supp. Figure 3a, relative MeV N RNA in PBMCs, Mean Diff. (MeV N gene RNA; untreated vs. therapeutic (d3), Day 21): 3.351 | Supp. Figure 3a, relative MeV N RNA in PBMCs, Mean Diff. (MeV N gene RNA; untreated vs. therapeutic (d7), Day 0): -2.049 | Supp. Figure 3a, relative MeV N RNA in PBMCs, Mean Diff. (MeV N gene RNA; untreated vs. therapeutic (d7), Day 3): -0.2124 | Supp. Figure 3a, relative MeV N RNA in PBMCs, Mean Diff. (MeV N gene RNA; untreated vs. therapeutic (d7), Day 7): 3.189 | Supp. Figure 3a, relative MeV N RNA in PBMCs, Mean Diff. (MeV N gene RNA; untreated vs. therapeutic (d7), Day 10): 3.285 | Supp. Figure 3a, relative MeV N RNA in PBMCs, Mean Diff. (MeV N gene RNA; untreated vs. therapeutic (d7), Day 14): 0.916 | Supp. Figure 3a, relative MeV N RNA in PBMCs, Mean Diff. (MeV N gene RNA; untreated vs. therapeutic (d7), Day 17): 0.1414 | Supp. Figure 3a, relative MeV N RNA in PBMCs, Mean Diff. (MeV N gene RNA; untreated vs. therapeutic (d7), Day 21): -0.1552 | histological signs of pharmacotoxicity ([1]; all monkeys, day 21, 50 mg/kg b.i.d. 14 days): No histological signs of pharmacotoxicity were detected | liver histology of the deceased animal versus untreated control ([1]; day 3 therapeutic group animal deceased day 15): no pathological alternations | Body weight changes [2]: negligible | survival after post-exposure therapeutic dosing [3]: complete survival of all treated animals
